This assay concerns adult human keratinocytes. Put plainly: In-vitro scratch wound-healing assay. To be noted: for closure of in vitro scratch wound gap: day 4, Example 9, FIG. 8B. In kind it is cell-based. Here is the method: Human neonatal or adult keratinocytes late population doubling time (PD≧15) were trypsinized and seeded onto 6-well tissue culture plates (Falcon) at a density of 3×10^6 cells/well in HKGS (Cascade Biologics) and EpiLife (Cascade Biologics). After an overnight incubation in a 5% CO2 and 37° C. chamber, a bisecting scratch was made with a sterile p1000 micropipette tip and the cells were washed with PBS twice, and then replaced with the basal medium without the supplement for the duration of the assay.
Total extract, fractions and compounds of Rhizoma arisaematis were diluted in the basal medium without the supplement and added to the wells. EGF (Sigma) at 50 ng/mL was used as positive control, and DMSO (0.1%) was used as a vehicle control.
For each scratch, two consecutive fields were selected using the following criteria: relatively little cell debris within the scratch; even scratch, with straight edges; both edges visible under a single field using the 10× objective; fields not too close to either end of the scratch. The pictures were taken from day 1 for five consecutive days. The medium and the extracts were replenished daily for the duration of the assay.
To examine the efficacy of the herb Rhizoma arisaematis (RA) in in vitro closure of scratch wounds, human keratinocytes were incubated with the crude extract (RA-T) or different fractions of RA (100 μg/mL).
To examine the efficacy of the WA sub-fractions of RA in closing in vitro scratch wounds, RA-WA1 and RA-WA2 (1 μg/mL and 10 μg/mL) were tested using human keratinocytes. The scratch assay was performed using the procedures as described in Example 1. RA-WA1 and RA-WA2 at 1 μg/mL and 10 μg/mL were evaluated for their ability to close in vitro wound gap.
To examine the wound-healing effects, 3-O-(9,12-octadecadienoyl)-glyceryl-β-D-galactopyranoside (G192-C07) isolated from the BU fraction of RA (FIG. 8A) was incubated with human keratinocytes. The scratch assay was performed as described in Examples 1 and 5. G192-C07 at 1, 3, 10, and 30 μg/mL were evaluated for their ability to close in vitro wound gap. Epidermal growth factor (EGF, 10 ng/mL) and 0.1% DMSO were used as a positive and a vehicle control, respectively. Photographs of the wounds were taken immediately after the scratch and on day 4.

The values below come from patent publication US20150004261A1, “Rhizoma Arisaematis Extracts and Uses Thereof for Wound-Healing Effects” (THE HONG KONG UNIVERSITY OF SCIENCE AND TECHNOLOGY, priority 2011, published 2015).

Regarding `CCCCC/C=C\C/C=C\CCCCCCCC(=O)OCC(O)CO[C@@H]1O[C@H](CO)[C@H](O)[C@H](O)[C@H]1O` (stereo partly drawn) [Compound G192-C07, 3-O-(9Z,12Z-octadecadienoyl)-glyceryl-β-D-galactopyranoside], the “closure of in vitro scratch wound gap” value (1 μM) was “partly closed the wound gap”, the “closure of in vitro scratch wound gap” value (3 μM) was “partly closed the wound gap”, the “closure of in vitro scratch wound gap” value (10 μM) is “partly closed the wound gap” and the “closure of in vitro scratch wound gap” value (30 μM) is recorded as “fully closed the wounds by day 4”.
With “EGF: Epidermal growth factor (Sigma), positive control (NSDSECPLSHDGYCLHDGVCMYIEALDKYACNCVVGYIGERCQYRDLKWWELR; Epidermal growth factor; UniProt P01133 971-1023, looked up) [reference compound]”, under “positive control, 10 ng/mL”, the “closure of in vitro scratch wound gap” value is reported as “fully closed the wounds by day 4”. The “closure of in vitro scratch wounds” value (positive control, 50 ng/mL, Example 1, FIG. 1) was “closed the wounds by day 2”.
